{
  "source": "ChEMBL document CHEMBL4396913",
  "about": "“Synthesis and biological evaluation of hybrid quinolone-based quaternary ammonium antibacterial agents” (Eur J Med Chem, 2019)",
  "key": {"[1]": {"test_system": "Staphylococcus epidermidis", "test": "Antibacterial activity against Staphylococcus epidermidis ATCC 14990 cultured in MH medium assessed as reduction in bacterial growth incubated for 48 hrs by microbroth dilution method", "assay_type": "functional", "conditions": "ATCC 14990, 48 h"}, "[2]": {"target": "T1, DNA gyrase (Escherichia coli) (UniProt P0AES6+P0AES4)", "test": "Inhibition of Escherichia coli DNA gyrase super-coiling activity using relaxed pNO1 DNA as substrate assessed as enzyme residual activity at 1 uM incubated for 30 mins by fluorescence assay relative to control", "assay_type": "protein-complex assay"}, "Proteus vulgaris [3]": {"test_system": "Proteus vulgaris", "test": "Antibacterial activity against Proteus vulgaris NCTC 4635 cultured in MH medium assessed as reduction in bacterial growth incubated for 48 hrs by microbroth dilution method", "assay_type": "functional", "conditions": "NCTC 4635, 48 h"}, "Staphylococcus aureus [4]": {"test_system": "Staphylococcus aureus", "test": "Bactericidal activity against Staphylococcus aureus ATCC 6538 cultured in MH medium assessed as reduction in bacterial survival incubated for 48 hrs by microbroth dilution method", "assay_type": "functional", "conditions": "ATCC 6538, 48 h"}, "Proteus vulgaris [5]": {"test_system": "Proteus vulgaris", "test": "Bactericidal activity against Proteus vulgaris NCTC 4635 cultured in MH medium assessed as reduction in bacterial survival incubated for 48 hrs by microbroth dilution method", "assay_type": "functional", "conditions": "NCTC 4635, 48 h"}, "Serratia marcescens [6]": {"test_system": "Serratia marcescens", "test": "Antibacterial activity against Serratia marcescens ATCC 12795 cultured in MH medium assessed as reduction in bacterial growth incubated for 48 hrs by microbroth dilution method", "assay_type": "functional", "conditions": "ATCC 12795, 48 h"}, "Escherichia coli [7]": {"test_system": "Escherichia coli", "test": "Bactericidal activity against Escherichia coli ATCC 8739 cultured in MH medium assessed as reduction in bacterial survival incubated for 48 hrs by microbroth dilution method", "assay_type": "functional", "conditions": "ATCC 8739, 48 h"}, "Staphylococcus aureus [8]": {"test_system": "Staphylococcus aureus", "test": "Bactericidal activity against methicillin resistant Staphylococcus aureus N315 cultured in MH medium assessed as reduction in bacterial survival incubated for 48 hrs by microbroth dilution method", "assay_type": "functional", "conditions": "N315, 48 h"}, "[9]": {"target": "T1, DNA gyrase (Escherichia coli)", "test": "Inhibition of Escherichia coli DNA gyrase super-coiling activity using relaxed pNO1 DNA as substrate assessed as enzyme residual activity at 10 uM incubated for 30 mins by fluorescence assay relative to control", "assay_type": "protein-complex assay"}, "Bacillus spizizenii [10]": {"test_system": "Bacillus spizizenii", "test": "Bactericidal activity against Bacillus subtilis ATCC 6633 cultured in MH medium assessed as reduction in bacterial survival incubated for 48 hrs by microbroth dilution method", "assay_type": "functional", "conditions": "ATCC 6633, 48 h"}, "Serratia marcescens [11]": {"test_system": "Serratia marcescens", "test": "Bactericidal activity against Serratia marcescens ATCC 12795 cultured in MH medium assessed as reduction in bacterial survival incubated for 48 hrs by microbroth dilution method", "assay_type": "functional", "conditions": "ATCC 12795, 48 h"}, "Escherichia coli [12]": {"test_system": "Escherichia coli", "test": "Antibacterial activity against Escherichia coli ATCC 8739 cultured in MH medium assessed as reduction in bacterial growth incubated for 48 hrs by microbroth dilution method", "assay_type": "functional", "conditions": "ATCC 8739, 48 h"}, "Streptococcus pneumoniae": {"test_system": "Streptococcus pneumoniae", "test": "Antibacterial activity against Streptococcus pneumoniae cultured in MH medium assessed as reduction in bacterial growth incubated for 48 hrs by microbroth dilution method", "assay_type": "functional"}, "Bacillus spizizenii [13]": {"test_system": "Bacillus spizizenii", "test": "Antibacterial activity against Bacillus subtilis ATCC 6633 cultured in MH medium assessed as reduction in bacterial growth incubated for 48 hrs by microbroth dilution method", "assay_type": "functional", "conditions": "ATCC 6633, 48 h"}, "HEK293 [14]": {"test_system": "HEK293", "test": "Cytotoxicity against human HEK293 cells assessed as cell viability upto 20 uM incubated for 72 hrs by MTT assay", "assay_type": "cell-based", "conditions": "hek293, 72 h"}, "Pseudomonas aeruginosa [15]": {"test_system": "Pseudomonas aeruginosa", "test": "Antibacterial activity against Pseudomonas aeruginosa ATCC 9027 cultured in MH medium assessed as reduction in bacterial growth incubated for 48 hrs by microbroth dilution method", "assay_type": "functional", "conditions": "ATCC 9027, 48 h"}, "Enterococcus hirae": {"test_system": "Enterococcus hirae", "test": "Antibacterial activity against Enterococcus hirae ATCC 1052 cultured in BHI medium assessed as reduction in bacterial growth incubated for 48 hrs by microbroth dilution method", "assay_type": "functional", "conditions": "ATCC 1052, 48 h"}, "[16]": {"test": "Lipophilicity, log k of the compound at 100 ug/ml by micellar electrokinetic chromatography", "assay_type": "physicochemical"}, "HEK293 [17]": {"test_system": "HEK293", "test": "Cytotoxicity against human HEK293 cells assessed as changes in cell morphology upto 20 uM incubated for 72 hrs by MTT assay", "assay_type": "cell-based", "conditions": "hek293, 72 h"}, "[18]": {"test_system": "Staphylococcus epidermidis", "test": "Bactericidal activity against methicillin resistant Staphylococcus epidermidis ATCC 13199 cultured in MH medium assessed as reduction in bacterial survival incubated for 48 hrs by microbroth dilution method", "assay_type": "functional", "conditions": "ATCC 13199, 48 h"}, "[19]": {"test_system": "Staphylococcus epidermidis", "test": "Antibacterial activity against methicillin resistant Staphylococcus epidermidis ATCC 13199 cultured in MH medium assessed as reduction in bacterial growth incubated for 48 hrs by microbroth dilution method", "assay_type": "functional", "conditions": "ATCC 13199, 48 h"}, "Staphylococcus aureus [20]": {"test_system": "Staphylococcus aureus", "test": "Antibacterial activity against methicillin resistant Staphylococcus aureus N315 cultured in MH medium assessed as reduction in bacterial growth incubated for 48 hrs by microbroth dilution method", "assay_type": "functional", "conditions": "N315, 48 h"}, "Staphylococcus aureus [21]": {"test_system": "Staphylococcus aureus", "test": "Antibacterial activity against methicillin resistant Staphylococcus aureus 6347 cultured in MH medium assessed as reduction in bacterial growth incubated for 48 hrs by microbroth dilution method", "assay_type": "functional", "conditions": "Staphylococcus aureus, 6347, 48 h"}, "Pseudomonas aeruginosa [22]": {"test_system": "Pseudomonas aeruginosa", "test": "Bactericidal activity against Pseudomonas aeruginosa ATCC 9027 cultured in MH medium assessed as reduction in bacterial survival incubated for 48 hrs by microbroth dilution method", "assay_type": "functional", "conditions": "ATCC 9027, 48 h"}, "Staphylococcus aureus [23]": {"test_system": "Staphylococcus aureus", "test": "Antibacterial activity against Staphylococcus aureus ATCC 6538 cultured in MH medium assessed as reduction in bacterial growth incubated for 48 hrs by microbroth dilution method", "assay_type": "functional", "conditions": "ATCC 6538, 48 h"}, "[24]": {"test_system": "Staphylococcus epidermidis", "test": "Bactericidal activity against Staphylococcus epidermidis ATCC 14990 cultured in MH medium assessed as reduction in bacterial survival incubated for 48 hrs by microbroth dilution method", "assay_type": "functional", "conditions": "ATCC 14990, 48 h"}, "Staphylococcus aureus [25]": {"test_system": "Staphylococcus aureus", "test": "Bactericidal activity against methicillin resistant Staphylococcus aureus 6347 cultured in MH medium assessed as reduction in bacterial survival incubated for 48 hrs by microbroth dilution method", "assay_type": "functional", "conditions": "Staphylococcus aureus, 6347, 48 h"}},
  "data": [
    {"smiles": "C[C@@H]1CN(c2c(F)c(N)c3c(=O)c(C(=O)O)cn(C4CC4)c3c2F)C[C@H](C)[N+]12CN1C(=N2)C(C(=O)O)=Cc2ccccc21.[Cl-]", "note": "(some centres not stated)", "values": [
      {"measurement": "MIC", "setting": "[1]", "value": 8, "unit": "µg/mL"},
      {"measurement": "Activity", "setting": "[2]", "value": 73, "unit": "%"},
      {"measurement": "MIC", "setting": "Proteus vulgaris [3]", "value": 2, "unit": "µg/mL"},
      {"measurement": "MBC", "setting": "Staphylococcus aureus [4]", "value": 8, "unit": "µg/mL"},
      {"measurement": "MBC", "setting": "Proteus vulgaris [5]", "value": 2, "unit": "µg/mL"},
      {"measurement": "MIC", "setting": "Serratia marcescens [6]", "value": 64, "unit": "µg/mL"},
      {"measurement": "MBC", "setting": "Escherichia coli [7]", "value": 4, "unit": "µg/mL"},
      {"measurement": "MBC", "setting": "Staphylococcus aureus [8]", "value": 128, "unit": "µg/mL"},
      {"measurement": "Activity", "setting": "[9]", "value": 35, "unit": "%"},
      {"measurement": "MBC", "setting": "Bacillus spizizenii [10]", "value": 4, "unit": "µg/mL"},
      {"measurement": "MBC", "setting": "Serratia marcescens [11]", "value": 64, "unit": "µg/mL"},
      {"measurement": "MIC", "setting": "Escherichia coli [12]", "value": 4, "unit": "µg/mL"},
      {"measurement": "MIC", "setting": "Streptococcus pneumoniae", "value": "> 512", "unit": "µg/mL"},
      {"measurement": "MIC", "setting": "Bacillus spizizenii [13]", "value": 4, "unit": "µg/mL"},
      {"measurement": "Activity", "setting": "HEK293 [14]", "value": "Non-Toxic"},
      {"measurement": "MIC", "setting": "Pseudomonas aeruginosa [15]", "value": 64, "unit": "µg/mL"},
      {"measurement": "MIC", "setting": "Enterococcus hirae", "value": "> 512", "unit": "µg/mL"},
      {"measurement": "log K", "setting": "[16]", "value": -0.07},
      {"measurement": "Activity", "setting": "HEK293 [17]", "value": "Non-Toxic"},
      {"measurement": "MBC", "setting": "[18]", "value": 32, "unit": "µg/mL"},
      {"measurement": "MIC", "setting": "[19]", "value": 16, "unit": "µg/mL"},
      {"measurement": "MIC", "setting": "Staphylococcus aureus [20]", "value": 32, "unit": "µg/mL"},
      {"measurement": "MIC", "setting": "Staphylococcus aureus [21]", "value": 32, "unit": "µg/mL"},
      {"measurement": "MBC", "setting": "Pseudomonas aeruginosa [22]", "value": 64, "unit": "µg/mL"},
      {"measurement": "MIC", "setting": "Staphylococcus aureus [23]", "value": 8, "unit": "µg/mL"},
      {"measurement": "MBC", "setting": "[24]", "value": 8, "unit": "µg/mL"},
      {"measurement": "MBC", "setting": "Staphylococcus aureus [25]", "value": 32, "unit": "µg/mL"}
    ]}
  ]
}
